≈ marks a conversion by molar mass, not a printed value.
Assays:
[1] = Solubility at pH 7.4; format: physicochemical; conditions: buffer
[2] = organism: Homo sapiens; experiment: Compound was tested in vitro for inhibition of human mixed lymphocyte proliferation (HuMLR); format: functional
[3] = organism: Homo sapiens; experiment: Compound was tested in vitro for inhibitory activity against human FKBP; format: functional
[4] = Distribution coefficent (Log D) value at pH 7.4; format: physicochemical; conditions: read-out: LogD7.4
[5] = system: Rattus norvegicus; experiment: Compound was tested in vivo for immunosuppressive activity using rat popliteal lymph node (rPLN) hyperplasia assay; format: functional
[6] = Solubility at pH 6.5; format: physicochemical; conditions: buffer
[7] = Distribution coefficient (Log D) value at pH 6.5; format: physicochemical; conditions: octanol/water, read-out: LogD6.5
[8] = system: Rattus norvegicus; experiment: Compound was tested in vivo for immunosuppressive activity using rat popliteal lymph node (rPLN) hyperplasia assay at 3 mg/kg; format: functional
[9] = Compound was tested in vitro for inhibitory activity against human FK506 binding protein

| SMILES | solubility [1] [µg/mL] | IC50 [2] [nM] | IC50 [3] [nM] | logD [4] | ED50 [5] [mg/kg] | solubility ([6]; read-out: Solubility) [µg/mL] | logD [7] | inhibition in vivo at 3 mg/kg [8] [%] | solubility [6] [µg/mL] | IC50 [9] [nM] |
| --- | --- | --- | --- | --- | --- | --- | --- | --- | --- | --- |
| CC[C@@H]1/C=C(\C)C[C@H](C)C[C@H](OC)[C@H]2O[C@@](O)(C(=O)C(=O)N3CCCC[C@H]3C(=O)O[C@H](/C(C)=C/[C@@H]3C[C@@H](O)[C@@H](O)[C@H](OC)C3)[C@H](C)[C@@H](O)CC1=O)[C@H](C)C[C@@H]2OC | 455 (≈ 563 µM) | 0.17 | 1.21 | 3.4 | 0.72 | 464 (≈ 574 µM) | 3.6 | – | – | – |
| CC[C@@H]1/C=C(\C)C[C@H](C)C[C@H](OC)[C@H]2O[C@@](O)(C(=O)C(=O)N3CCCC[C@H]3C(=O)O[C@H](/C(C)=C/[C@@H]3CC[C@@H](OC)[C@H](O)C3O)[C@H](C)[C@@H](O)CC1=O)[C@H](C)C[C@@H]2OC (stereo partly drawn) | 245 (≈ 303 µM) | 0.72 | 39.2 | 3.9 | – | 294 (≈ 364 µM) | 3.9 | 36 | – | – |
| CC[C@@H]1/C=C(\C)C[C@H](C)C[C@H](OC)[C@H]2O[C@@](O)(C(=O)C(=O)N3CCCC[C@H]3C(=O)O[C@H](/C(C)=C/[C@@H]3CC[C@@H](O)[C@H](OC)C3)[C@H](C)[C@@H](O)CC1=O)[C@H](C)C[C@@H]2OC [ASCOMYCIN] | 4.2 (≈ 5.3 µM) | 0.25 | 2.06 | 4.22 | 0.31 | – | 3.98 | – | 1.6 (≈ 2.02 µM) | – |
| C=CC[C@@H]1/C=C(\C)C[C@H](C)C[C@H](OC)[C@H]2O[C@@](O)(C(=O)C(=O)N3CCCC[C@H]3C(=O)O[C@H](/C(C)=C/[C@@H]3CC[C@@H](O)[C@H](OC)C3)[C@H](C)[C@@H](O)CC1=O)[C@H](C)C[C@@H]2OC [TACROLIMUS ANHYDROUS] | 5.2 (≈ 6.47 µM) | 0.37 | – | 4.38 | 0.15 | 1 (≈ 1.24 µM) | 4.36 | – | – | 2.54 |

Reference: ChEMBL document CHEMBL1130792, “Studies on an immunosuppressive macrolactam, ascomycin: synthesis of a C-33 hydroxyl derivative” (Bioorg Med Chem Lett, 1998)
